Measurements reported in US20240059658A1 (Emory University, priority 2019, published 2024).
Where two headings read alike, the source gives them in different places.

Columns and labels:
EU-1 = experiment: WST cytotoxicity assay, cancer cell EU-1; type: cell-based, human; settings: no other cell line named in the cell, read-out: Cancer cell (EU-1) cytotoxicity IC50
Method: This study used two ALL cell lines (EU-1 and EU-3) and three NB cell lines (NB-1643, SHEP1 and LA1-55N). All 5 cancer cell lines were established from pediatric ALL or NB patients and were well-characterized for their expression of MDM2 and p53-status, as reported previously. All cell lines were grown in standard culture medium (RPMI 1640 containing 10% FBS, 2 mmol/L L-glutamine, 50 U penicillin and 50 μg/mL streptomycin) at 37° C. in a humidified atmosphere containing 5% CO2.
The cytotoxic effect of MX 69 and MX69 analogs on cancer cells was determined using the water-soluble tetrazolium salt (WST) assay. Briefly, cells cultured in 96-well microtiter plates were treated with different concentrations of AQ-101 for a 20-h period. WST (25 μg/well) was then added and incubation continued for an additional 4 h, after which optical density (OD) was read with a microplate reader (test wavelength of 450 nm; reference wavelength of 620 nm).

MDM2 = target: T1, MDM2 (Homo sapiens, UniProt Q00987); experiment: MDM2 reduction / expression (Western blot); type: cell-based; settings: words or +/− grades, key not given
T1 construct: ubiquitination of endogenous MDM2 in EU-1 cells; endogenous in cells; host or cells: EU-1 (ALL) cells
T1 sequence (Q00987 whole entry): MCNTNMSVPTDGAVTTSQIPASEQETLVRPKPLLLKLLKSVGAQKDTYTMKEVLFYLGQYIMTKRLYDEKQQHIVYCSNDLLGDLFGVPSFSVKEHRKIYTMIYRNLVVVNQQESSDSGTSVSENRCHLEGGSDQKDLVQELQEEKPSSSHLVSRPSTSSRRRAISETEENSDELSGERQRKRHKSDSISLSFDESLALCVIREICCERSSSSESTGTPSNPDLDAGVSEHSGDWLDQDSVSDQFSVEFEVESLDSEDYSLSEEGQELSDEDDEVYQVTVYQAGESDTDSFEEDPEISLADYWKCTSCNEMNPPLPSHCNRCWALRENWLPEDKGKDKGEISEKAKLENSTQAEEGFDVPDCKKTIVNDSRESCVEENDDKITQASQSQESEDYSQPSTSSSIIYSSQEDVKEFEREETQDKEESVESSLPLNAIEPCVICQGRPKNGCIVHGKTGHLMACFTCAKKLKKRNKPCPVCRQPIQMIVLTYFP
Method: Cells were lysed in a buffer composed of 50 mM Tris, pH 7.6, 150 mM NaCl, 1% Nonidet P-40, 10 mM sodium phosphate, 10 mM NaF, 1 mM sodium orthovanadate, 2 mM phenylmethylsulfonyl fluoride (PMSF), […], 10 μg/mL leupeptin and 10 μg/mL pepstatin. After centrifugation, the clarified cell lysate was separated from the pellet of cell debris, and then incubated with 15 μL Protein G/Protein A-agarose and 1 μg of antibodies, overnight at 4° C. For the Western blot, the resulting cell lysates or immunoprecipitates were resolved by SDS-PAGE. They were then transferred to a nitrocellulose filter and probed with the specific antibodies as listed in the supplemental Materials section. Finally, proteins were visualized with a chemiluminescent detection system.

In the case of `Cc1ccc(NS(=O)(=O)c2ccc3c(c2)C2OCC[C@H]2C(c2ccc(C(=O)C(C)C)cc2)N3)cc1C` (some centres unmarked) [Compound 69L96], the IC50 (EU-1; Homo sapiens, EU-1, EU-1) is reported as 2.08 µM and the MDM2 reduction (MDM2) is reported as “inhibition”.

For `CC(=O)c1ccc([C@@H]2Nc3ccc(S(=O)(=O)Nc4ccc(C)c(C)c4)cc3[C@H]3C=CC[C@H]32)cc1` [Compound 69L48], the IC50 (EU-1; Homo sapiens, EU-1, EU-1) was 3.8 µM and the MDM2 reduction (MDM2) was “inhibition”.

`CC(C)C(=O)c1ccc(C2CC(=O)c3cc(S(=O)(=O)Nc4ccc(Cl)c(Cl)c4)ccc3N2)cc1` (centres unmarked) [Compound 69L100, N-(3,4-dichlorophenyl)-2-(4-isobutyrylphenyl)-4-oxo-1,2,3,4-tetrahydroquinoline-6-sulfonamide] was tested, and the IC50 (EU-1; Homo sapiens, EU-1, EU-1) was 1.87 µM and the MDM2 reduction (MDM2) was “No MDM2”.

`CC(=O)c1ccc(NS(=O)(=O)c2ccc3c(c2)[C@H]2OCC[C@H]2C(c2cccc(C(C)=O)c2)N3)cc1` (stereo in doubt) [Compound 69L101, 4-(3-acetylphenyl)-N-(4-acetylphenyl)-2,3,3a,4,5,9b-hexahydrofuro[3,2-c]quinoline-8-sulfonamide] was tested, and the IC50 (EU-1; Homo sapiens, EU-1, EU-1) was 1.8 µM and the MDM2 reduction (MDM2) was “inhibition”.

With `Cc1ccc(NS(=O)(=O)c2ccc3c(c2)[C@H]2OCC[C@H]2[C@H](C2CCNCC2)N3)cc1C` [Compound 69L55] the IC50 (EU-1; Homo sapiens, EU-1, EU-1) was 1.64 µM and the MDM2 reduction (MDM2) was “No MDM2”.

In the case of `CC(=O)c1cccc(NS(=O)(=O)c2ccc3c(c2)C(=O)CC(c2cccc(C(C)=O)c2)N3)c1` (centres unmarked) [Compound 69L121, N,2-bis(3-acetylphenyl)-4-oxo-1,2,3,4-tetrahydroquinoline-6-sulfonamide], the IC50 (EU-1; Homo sapiens, EU-1, EU-1) is reported as 0.18 µM and the MDM2 reduction (MDM2) is reported as “inhibition”.

With `Cc1cccc(NS(=O)(=O)c2ccc3c(c2)[C@H]2OCC[C@H]2[C@H](c2ccc(C(=O)C(C)C)cc2)N3)c1` [Compound 69L95] the IC50 (EU-1; Homo sapiens, EU-1, EU-1) was 1.42 µM and the MDM2 reduction (MDM2) was “inhibition”.

In the case of `CC(C)C(=O)c1ccc(C2Nc3ccc(S(=O)(=O)Nc4ccc5c(c4)CCO5)cc3[C@H]3OCC[C@@H]23)cc1` (some centres unmarked) [Compound 69L117], the IC50 (EU-1; Homo sapiens, EU-1, EU-1) is reported as 0.3 µM and the MDM2 reduction (MDM2) is reported as “No MDM2”.

For `CC(C)C(=O)c1ccc(C2Nc3ccc(S(=O)(=O)N[C@H]4CC[C@H](C)CC4)cc3[C@H]3OCC[C@@H]23)cc1` (some centres unmarked) [Compound 69L78], the IC50 (EU-1; Homo sapiens, EU-1, EU-1) was 3.67 µM and the MDM2 reduction (MDM2) was “No MDM2”.

With `O=S(=O)(Nc1ccc(Cl)c(Cl)c1)c1ccc2nc(C3CCCCC3)ccc2c1` [Compound 69L105] the IC50 (EU-1; Homo sapiens, EU-1, EU-1) was 3.12 µM and the MDM2 reduction (MDM2) was “No MDM2”.

In the case of `Cc1ccc(NS(=O)(=O)c2ccc3c(c2)C(=O)CC(c2ccc(C(=O)C(C)C)cc2)N3)cc1Cl` (centres unmarked) [Compound 69L107, N-(3-chloro-4-methylphenyl)-2-(4-isobutyrylphenyl)-4-oxo-1,2,3,4-tetrahydroquinoline-6-sulfonamide], the IC50 (EU-1; Homo sapiens, EU-1, EU-1) is reported as 0.93 µM and the MDM2 reduction (MDM2) is reported as “inhibition”.

For `CC(=O)c1cccc(C2CC(=O)c3cc(S(=O)(=O)Nc4ccc(F)c(C)c4)ccc3N2)c1` (centres unmarked) [Compound 69L109, 2-(3-acetylphenyl)-N-(4-fluoro-3-methylphenyl)-4-oxo-1,2,3,4-tetrahydroquinoline-6-sulfonamide], the IC50 (EU-1; Homo sapiens, EU-1, EU-1) was 0.1 µM and the MDM2 reduction (MDM2) was “No MDM2”.

With `O=S(=O)(Nc1ccccc1)c1ccc2c(c1)[C@H]1OCC[C@H]1[C@H](C1CCCCC1)N2` [Compound 69L66] the IC50 (EU-1; Homo sapiens, EU-1, EU-1) was 2.56 µM and the MDM2 reduction (MDM2) was “No MDM2”.

With `CC(C)C(=O)c1ccc(C2Nc3ccc(S(=O)(=O)Nc4ccccc4)cc3[C@H]3OCC[C@@H]23)cc1` (some centres unmarked) [Compound 69L75] the IC50 (EU-1; Homo sapiens, EU-1, EU-1) was 3.21 µM and the MDM2 reduction (MDM2) was “No MDM2”.

For `COc1cccc(NS(=O)(=O)c2ccc3c(c2)C(=O)CC(c2cccc(C(=O)N(C)C)c2)N3)c1` (centres unmarked) [Compound 69L159, 3-(6-(N-(3-methoxyphenyl)sulfamoyl)-4-oxo-1,2,3,4-tetrahydroquinolin-2-yl)-N,N-dimethylbenzamide], the IC50 (EU-1; Homo sapiens, EU-1, EU-1) was 0.65 µM.

With `COC(=O)c1ccc([C@@H]2Nc3ccc(S(=O)(=O)Nc4ccc(C)c(C)c4)cc3[C@H]3c4ccccc4C[C@H]32)cc1` [Compound 69L3] the IC50 (EU-1; Homo sapiens, EU-1, EU-1) was 18.3 µM.

For `COc1cccc(NS(=O)(=O)c2ccc3c(c2)C(=O)CC(c2cccc(C(=O)C(C)C)c2)N3)c1` (centres unmarked) [Compound 69L157, 2-(3-isobutyrylphenyl)-N-(3-methoxyphenyl)-4-oxo-1,2,3,4-tetrahydroquinoline-6-sulfonamide], the IC50 (EU-1; Homo sapiens, EU-1, EU-1) was 0.33 µM.

`CC(C)C(=O)c1cccc(C2CC(=O)c3cc(S(=O)(=O)Nc4cccc5c4COC5=O)ccc3N2)c1` (centres unmarked) [Compound 69L149] was tested, and the IC50 (EU-1; Homo sapiens, EU-1, EU-1) was 0.58 µM.

In the case of `Cc1ccc(S(=O)(=O)Nc2ccc3c(c2)[C@H]2OCC[C@H]2C(c2ccc(C(=O)C(C)C)cc2)N3)cc1C` (stereo in doubt) [Compound 69L162, N-(4-(4-isobutyrylphenyl)-2,3,3a,4,5,9b-hexahydrofuro[3,2-c]quinolin-8-yl)-3,4-dimethylbenzenesulfonamide], the IC50 (EU-1; Homo sapiens, EU-1, EU-1) is reported as > 5 µM.

In the case of `Cc1ccc(NS(=O)(=O)c2ccc3c(c2)[C@H]2OCC[C@H]2[C@H](c2ccc(C(=O)O)cc2)N3)cc1C` [Compound 69L5], the IC50 (EU-1; Homo sapiens, EU-1, EU-1) is reported as > 50 µM.

`CC(C)C(=O)c1ccc(C2Nc3ccc(S(=O)(=O)Nc4cccc(N(C)C)c4)cc3[C@H]3OCC[C@@H]23)cc1` (some centres unmarked) [Compound 69L141] was tested, and the IC50 (EU-1; Homo sapiens, EU-1, EU-1) was 7.5 µM.

Work on `Cc1ccc(NS(=O)(=O)c2ccc3c(c2)C2CCC[C@H]2[C@H](c2ccc(C(=O)C(C)C)cc2)N3)cc1C` (some centres unmarked) [Compound 69L88] yielded an IC50 (EU-1; Homo sapiens, EU-1, EU-1) of 6.97 µM.

`COC(=O)c1ccc([C@@H]2Nc3ccc(S(=O)(=O)Nc4ccc(C)c(C)c4)cc3[C@H]3OCC[C@H]32)cc1` [Compound 69L13] was tested, and the IC50 (EU-1; EU-1) was 6.4 to 9 µM.

Molecule `Cc1ccc(NS(=O)(=O)c2ccc3c(c2)C(=O)CC(c2cccc(C(=O)C(C)C)c2)N3)cc1C#N` (centres unmarked) [Compound 69L156] has an IC50 (EU-1; Homo sapiens, EU-1, EU-1) of 0.54 µM.

In the case of `COC(=O)c1ccc([C@@]2(N)C[C@H](c3ccc(Cl)cc3)c3cc(S(=O)(=O)Nc4ccc(C)c(C)c4)ccc3N2)cc1` [Compound 69L14], the IC50 (EU-1; Homo sapiens, EU-1, EU-1) is reported as > 50 µM.

Molecule `CC(=O)c1cccc(C2CC(=O)c3cc(S(=O)(=O)Nc4ccc5c(c4)COC5)ccc3N2)c1` (centres unmarked) [Compound 69L124, 2-(3-acetylphenyl)-N-(1,3-dihydroisobenzofuran-5-yl)-4-oxo-1,2,3,4-tetrahydroquinoline-6-sulfonamide] has an IC50 (EU-1; Homo sapiens, EU-1, EU-1) of 0.46 µM.

`O=S(=O)(Nc1ccc(C(F)(F)F)c(C(F)(F)F)c1)c1ccc2c(c1)C1OCC[C@H]1C(C1CCCCC1)N2` (some centres unmarked) [Compound 69L91] was tested, and the IC50 (EU-1; Homo sapiens, EU-1, EU-1) was > 10 µM.

With `Cc1ccc(NS(=O)(=O)c2ccc3c(c2)C2OCC[C@H]2C(c2ccc(C(=O)C(C)C)cc2)N3)cc1` (stereo in doubt) [Compound 69L85, 4-(4-isobutyrylphenyl)-N-(p-tolyl)-2,3,3a,4,5,9b-hexahydrofuro[3,2-c]quinoline-8-sulfonamide] the IC50 (EU-1; Homo sapiens, EU-1, EU-1) was 3.33 µM.

In the case of `O=S(=O)(Nc1ccc2c(c1)CCO2)c1ccc2c(c1)C1OCC[C@H]1C(c1ccc3c(c1)CCO3)N2` (some centres unmarked) [Compound 69L128], the IC50 (EU-1; Homo sapiens, EU-1, EU-1) is reported as 1.31 µM.

In the case of `Cc1ccc(NS(=O)(=O)c2ccc3c(c2)[C@H]2OCC[C@H]2C(c2ccc(C(=O)C4CC4)cc2)N3)cc1Cl` (some centres unmarked) [Compound 69L69], the IC50 (EU-1; Homo sapiens, EU-1, EU-1) is reported as 5.81 µM.

For `Cc1ccc(NS(=O)(=O)c2ccc3[nH]c(-c4ccc(C(=O)C(C)C)cc4)c(I)c(=O)c3c2)cc1C` [Compound 69L97], the IC50 (EU-1; Homo sapiens, EU-1, EU-1) was 9.36 µM.

`CC(C)c1cccc(C2CC(=O)c3cc(S(=O)(=O)Nc4ccc5c(c4)CCO5)ccc3N2)c1` (centres unmarked) [Compound 69L138] was tested, and the IC50 (EU-1; Homo sapiens, EU-1, EU-1) was 1.4 µM.

In the case of `Cc1ccc(NS(=O)(=O)c2ccc3c(c2)[C@H]2OCC[C@H]2C(c2ccc(Br)cc2)N3)cc1C` (some centres unmarked) [Compound 69L8], the IC50 (EU-1; Homo sapiens, EU-1, EU-1) is reported as 3.61 µM.

With `Cc1ccc(NS(=O)(=O)c2ccc3c(c2)C2CCC[C@H]2[C@H](c2ccc(C(O)C(C)C)cc2)N3)cc1C` (some centres unmarked) [Compound 69L86] the IC50 (EU-1; Homo sapiens, EU-1, EU-1) was 3.77 µM.

`C=CC(=O)c1ccc(C2Nc3ccc(S(=O)(=O)Nc4ccc(C)c(C)c4)cc3[C@H]3OCC[C@@H]23)cc1` (some centres unmarked) [Compound 69L71] showed an IC50 (EU-1; Homo sapiens, EU-1, EU-1) of 30 µM.

With `CC(C)C(=O)c1cccc(C2Nc3ccc(S(=O)(=O)Nc4cccc(C(C)O)c4)cc3C3OCC[C@@H]23)c1` (some centres unmarked) [Compound 69L122] the IC50 (EU-1; Homo sapiens, EU-1, EU-1) was > 10 µM.

For `COC(=O)c1ccc(C2Nc3c(Cl)cc(S(=O)(=O)Nc4ccc(C)c(C)c4)cc3C3OCC[C@@H]23)cc1` (some centres unmarked) [Compound 69L33], the IC50 (EU-1; Homo sapiens, EU-1, EU-1) was > 50 µM.

`Cc1ccc(NS(=O)(=O)c2ccc3c(c2)[C@H]2OCC[C@H]2C(c2ccc(B(O)O)cc2)N3)cc1C` (some centres unmarked) [Compound 69L18] gave an IC50 (EU-1; Homo sapiens, EU-1, EU-1) of 14.7 µM.

With `Cc1ccc(NS(=O)(=O)c2ccc3c(c2)[C@H]2c4ccccc4C[C@H]2[C@H](c2ccc(C(=O)O)cc2)N3)cc1C` [Compound 69L6] the IC50 (EU-1; Homo sapiens, EU-1, EU-1) was 20.5 µM.

`COC(=O)c1ccc(C2Nc3ccc(S(=O)(=O)Nc4ccc(C)c(C)c4)cc3[C@H]3OCCC[C@@H]23)cc1` (some centres unmarked) [Compound 69L9] was tested, and the IC50 (EU-1; Homo sapiens, EU-1, EU-1) was 4.56 µM.

For `Cc1ccc(NS(=O)(=O)c2ccc3c(c2)[C@H]2OCCC[C@H]2C(c2ccc(C(=O)O)cc2)N3)cc1C` (some centres unmarked) [Compound 69L10], the IC50 (EU-1; Homo sapiens, EU-1, EU-1) was > 50 µM.

`Cc1ccc(NS(=O)(=O)c2ccc3c(c2Cl)[C@H]2C=CC[C@H]2[C@H](c2ccc(S(C)(=O)=O)cc2)N3)cc1C` [Compound 69L23] gave an IC50 (EU-1; Homo sapiens, EU-1, EU-1) of 23.4 µM.
